Reference: article PMC7478952 (Pharmaceutical Research, 2020)
Each block holds one compound with its values, some of them ahead of it.

Experiments:
in vivo = conditions: mouse
Experimental: Mice were sacrificed (n = 2) 0.25, 0.5, 1, 2, 4, 8 and 24 h after p.o. dosing. Blood was collected with heparinized syringe and plasma was separated. Three separate brain regions (cerebellum, front and back part of cerebrum) were isolated. The radioactivity in plasma and brain regions was measured by liquid scintillation counter. […] Plasma and whole brain homogenate samples were processed for metabolite profiling by HPLC with on-line radioisotope detector or liquid scintillation counter.

DAAO [1] = system: DAAO; parameters: method as in PMID 28780732; conditions: pre-treatment; cited from earlier work
novel object recognition = conditions: cited from earlier work
D-serine in cerebellum [2] = conditions: cited from earlier work
DAAO [3] = biological target: DAAO (Homo sapiens, UniProt P14920); assay: Inhibition of DAAO activity in vitro; assay type: biochemical
DAAO (Homo sapiens, UniProt P14920), sequence (P14920 whole entry, species assumed): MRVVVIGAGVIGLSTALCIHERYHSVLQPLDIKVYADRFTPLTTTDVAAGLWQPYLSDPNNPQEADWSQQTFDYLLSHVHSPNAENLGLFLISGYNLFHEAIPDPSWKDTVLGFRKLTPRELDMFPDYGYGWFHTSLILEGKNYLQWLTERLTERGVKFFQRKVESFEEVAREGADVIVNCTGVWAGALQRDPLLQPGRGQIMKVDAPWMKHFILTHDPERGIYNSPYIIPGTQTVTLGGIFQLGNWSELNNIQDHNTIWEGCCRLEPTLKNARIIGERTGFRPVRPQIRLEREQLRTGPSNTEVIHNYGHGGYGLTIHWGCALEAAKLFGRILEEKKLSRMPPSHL

[4] = biological target: T1, breast cancer resistance protein (BCRP) (Homo sapiens, UniProt Q9UNQ0); assay: BCRP substrate assessment; assay type: in vitro ADME
T1 sequence (Q9UNQ0 1-655): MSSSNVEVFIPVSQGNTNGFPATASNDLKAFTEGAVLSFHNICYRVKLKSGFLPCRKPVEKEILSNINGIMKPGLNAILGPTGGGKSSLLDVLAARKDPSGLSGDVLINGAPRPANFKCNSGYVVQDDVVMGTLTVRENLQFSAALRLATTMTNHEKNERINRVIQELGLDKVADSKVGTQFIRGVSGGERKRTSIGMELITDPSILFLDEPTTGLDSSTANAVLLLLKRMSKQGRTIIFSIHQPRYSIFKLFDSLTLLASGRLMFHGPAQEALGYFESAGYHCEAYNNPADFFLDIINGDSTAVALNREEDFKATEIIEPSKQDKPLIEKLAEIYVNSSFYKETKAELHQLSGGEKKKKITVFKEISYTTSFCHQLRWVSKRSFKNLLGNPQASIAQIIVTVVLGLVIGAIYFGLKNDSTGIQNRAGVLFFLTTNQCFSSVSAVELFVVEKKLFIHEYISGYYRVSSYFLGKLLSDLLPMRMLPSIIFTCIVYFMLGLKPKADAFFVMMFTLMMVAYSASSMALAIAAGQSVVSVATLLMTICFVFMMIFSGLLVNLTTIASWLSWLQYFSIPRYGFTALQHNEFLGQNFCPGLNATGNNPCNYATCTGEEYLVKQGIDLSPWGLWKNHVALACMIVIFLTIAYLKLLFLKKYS

[5] = Plasma PK of TAK-831 after single oral administration in mice (target occupancy study, 1-compartment model); assay type: in vivo, C57BL/6 J mice
Experimental: (§1) PGM019260 was formulated in 5% dimethyl sulfoxide and 95% v/v of 20% w/v 2-hydroxypropyl-β-cyclodextrin. […] After 2, 4, 6, 8, 10 and 24 h from oral administration, PGM019260 at 60 μg/kg was administered by intravenous route (i.v.) with a dose volume of 1 mL/kg (n = 4). Mice were sacrificed 20 min after tracer dosing. Blood was collected into heparin containing tubes and plasma was separated.
(§2) The grand mean value of tracer concentration in vehicle treatment group calculated from all the time points (2, 4, 6, 8, 10 and 24 h after vehicle treatment) was used as the baseline of tracer concentration across all the time points. […] The differential equations of PK/TO/PD model are shown below (Eqs. 1, 2 and 5). […] 4 and 6, respectively.1 dAp/dt=−CLp/Vp·Ap 2 dTO/dt=Kon·BRmax−TO·Cp−Koff·TO 3 Tracer concentration=BLtr·1−TO 4 In vivoKd=Koff/Kon×fp 5 dPD/dt=Kin−Kout·BRmax−Imax·TO 6 Kin=BL·Kout
(§3) The convergence criterion was three significant digits.

[6] = Translated human PK model (single species allometric scaling from rats)
Experimental: (§4) The translational modeling steps from the mouse PK/TO/PD model to that for humans are as follows; 1) PK model was replaced by the human PK model predicted from rats with single species allometric scaling approach(6). […] The differential equations of translated human PK/TO/PD model are shown in Eq. S12-S14, 2 and 5. […] The model parameters used for simulation are summarized in Supplementary table 2.
(§5) C1 is calculated by A1/V1. […] Imax represents maximum inhibitory effect of TO on Kout.

[7] = system: cerebellar-based associative learning; conditions: mice; cited from earlier work
P-glycoprotein (P-gp) = P-glycoprotein (P-gp) (Homo sapiens, UniProt P08183); assay: P-glycoprotein substrate assessment; assay type: in vitro ADME
P-glycoprotein (P-gp), sequence (P08183 whole entry): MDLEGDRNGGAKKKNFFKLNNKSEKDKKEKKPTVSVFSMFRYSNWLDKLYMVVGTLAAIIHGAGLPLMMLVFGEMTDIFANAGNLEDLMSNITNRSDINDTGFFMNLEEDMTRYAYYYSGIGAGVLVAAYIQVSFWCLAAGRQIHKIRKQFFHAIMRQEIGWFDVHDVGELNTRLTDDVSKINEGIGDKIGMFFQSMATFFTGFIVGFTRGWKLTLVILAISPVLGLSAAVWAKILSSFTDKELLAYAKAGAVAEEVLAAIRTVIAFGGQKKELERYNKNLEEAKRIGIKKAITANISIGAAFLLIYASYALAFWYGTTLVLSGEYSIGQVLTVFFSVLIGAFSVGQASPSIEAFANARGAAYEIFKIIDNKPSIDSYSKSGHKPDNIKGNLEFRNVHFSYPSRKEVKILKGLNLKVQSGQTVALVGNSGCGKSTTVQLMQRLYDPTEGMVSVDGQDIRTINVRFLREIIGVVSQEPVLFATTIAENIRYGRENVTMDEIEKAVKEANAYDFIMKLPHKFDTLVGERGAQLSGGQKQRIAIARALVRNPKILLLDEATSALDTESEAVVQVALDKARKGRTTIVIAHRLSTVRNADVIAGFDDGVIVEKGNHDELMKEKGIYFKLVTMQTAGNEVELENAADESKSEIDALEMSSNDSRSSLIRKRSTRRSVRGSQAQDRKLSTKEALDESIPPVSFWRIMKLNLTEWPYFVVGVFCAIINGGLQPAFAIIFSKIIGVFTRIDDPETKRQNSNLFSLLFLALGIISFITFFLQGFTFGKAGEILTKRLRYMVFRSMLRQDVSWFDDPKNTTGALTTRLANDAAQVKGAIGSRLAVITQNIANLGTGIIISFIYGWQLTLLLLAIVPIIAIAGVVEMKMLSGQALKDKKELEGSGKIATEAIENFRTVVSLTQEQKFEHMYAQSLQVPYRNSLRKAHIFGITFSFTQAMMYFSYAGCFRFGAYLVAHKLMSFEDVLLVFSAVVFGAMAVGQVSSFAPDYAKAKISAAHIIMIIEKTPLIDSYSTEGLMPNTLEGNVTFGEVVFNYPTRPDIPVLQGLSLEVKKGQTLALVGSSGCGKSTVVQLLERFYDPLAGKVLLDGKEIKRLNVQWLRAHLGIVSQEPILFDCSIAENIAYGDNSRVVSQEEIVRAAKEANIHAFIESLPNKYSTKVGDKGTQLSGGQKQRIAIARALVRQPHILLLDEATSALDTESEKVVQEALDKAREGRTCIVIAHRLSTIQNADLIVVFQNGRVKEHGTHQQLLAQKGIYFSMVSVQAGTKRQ

[8] = biological target: T2, D-amino acid oxidase (DAAO) (Mus musculus, UniProt P18894); assay: Cerebellum target occupancy of DAAO measured by displacement of tracer PGM019260 (mechanistic binding kinetics model); assay type: in vivo, C57BL/6 J mice
T2 construct: from tissue
T2 sequence (P18894 whole entry): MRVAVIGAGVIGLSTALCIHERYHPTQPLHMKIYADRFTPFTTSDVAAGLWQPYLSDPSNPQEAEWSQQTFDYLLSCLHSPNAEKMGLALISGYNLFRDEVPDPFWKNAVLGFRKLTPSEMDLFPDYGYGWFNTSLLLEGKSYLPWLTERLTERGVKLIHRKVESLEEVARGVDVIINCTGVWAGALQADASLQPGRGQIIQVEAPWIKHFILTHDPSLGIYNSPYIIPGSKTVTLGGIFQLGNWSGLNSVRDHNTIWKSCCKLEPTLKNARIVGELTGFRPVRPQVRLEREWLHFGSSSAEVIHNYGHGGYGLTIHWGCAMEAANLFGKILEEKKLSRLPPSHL
Experimental: as §1, §2, §3

[9] = system: social interaction (model of negative symptoms); conditions: Balb/c mice; cited from earlier work
[10] = Free fraction of TAK-831 in human plasma; assay type: in vitro ADME; conditions: read-out: fp,human free fraction in plasma
[11] = Free fraction of TAK-831 in mouse plasma; assay type: in vitro ADME; conditions: read-out: fp free fraction in mouse plasma
D-serine in cerebellum [12] = assay: Translated human PD model (D-serine in cerebellum); conditions: taken from the mouse model
Experimental: as §4, §5

DAAO [13] = conditions: human, taken from the mouse model
Experimental: as §4, §5

human DAAO = system: human DAAO; parameters: method as in PMID 28780732; conditions: cited from earlier work
mouse DAAO = system: mouse DAAO; parameters: method as in PMID 28780732; conditions: cited from earlier work

- dose dependency of plasma exposure of radioactivity (in vivo): increased almost dose-proportionally
SMILES: O=c1[nH]nc(CCc2ccc([14C](F)(F)F)cc2)cc1O [[^14C]TAK-831]

SMILES: O=C([O-])c1ccccc1.[Na+] [sodium benzoate]
- displacement of PGM019260 in the mouse cerebellum (DAAO [1]): dose dependent displacement

SMILES: O=c1[nH]nc(CCc2ccc(C(F)(F)F)cc2)cc1O [TAK-831, 4-hydroxy-6-{2-[4-(trifluoromethyl)phenyl]ethyl}pyridazin-3(2H)-one]
- dose at which efficacy was observed (novel object recognition; acute oral dose in mice): ≥ 0.3 mg/kg
- identification of the novel object (novel object recognition; range of acute and chronic doses in mice): able to identify the novel object
- D-serine levels in the cerebellum of normal mice (D-serine in cerebellum [2]): increase D-serine levels
- in vitro IC50 values on enzymatic activity, mice vs humans (DAAO [3]; comparison between mouse and human enzyme): comparable between mice and humans
- IC50 (DAAO [3]; read-out: 50% inhibitory concentration (IC50) of DAAO activity in vitro (converted)): 6.33 nM
- substrate of breast cancer resistance protein (BCRP) [4]: neither a substrate
- CL/F ([5]; C57BL/6 J, mouse, plasma, po, single p.o. 0.3-10 mg/kg, model estimate, read-out: CLp oral clearance (converted)): 85.7 mL/min/kg
- Tmax ([5]; C57BL/6 J, mouse, plasma, po, single p.o., first sampling at 2 h): ≤ 2 h
- dose dependency of plasma exposure ([5]; p.o. dose range 0.3 to 10 mg/kg): increased almost dose-proportionally
- Vp apparent volume of distribution ([5]; single p.o. 0.3-10 mg/kg, model estimate): 35.7 L/kg
- Ka absorption rate constant [6]: 0.218 h⁻¹
- acquisition of the conditioned response [7]: improvement in the acquisition of the conditioned response
- scopolamine induced deficit [7]: reversing the scopolamine induced deficit
- substrate of P-glycoprotein (P-gp) (P-glycoprotein (P-gp)): neither a substrate
- Kp (in vivo; C57BL/6 J): 0.181
- fraction unbound (in vivo; C57BL/6 J): 0.425
- time by which equilibrium across BBB was reached (in vivo; C57BL/6 J): ≤ 0.25 h
- Kp uu (in vivo): 1
- Kd [8]: 0.809 nM
- fold by which in vivo Kd is lower than in vitro IC50 ([8]; in vivo Kd vs in vitro IC50): about 8 fold
- Kon association rate constant ([8]; mice cerebellum, against total plasma concentration, model estimate): 0.0372 mL/ng/h
- BRmax maximum binding ratio ([8]; mice cerebellum, model estimate): 0.987
- accumulation of PK or TO after once daily multiple doses (empirical, separate studies) ([8]; mice, once daily multiple doses, data not shown): no accumulation was observed
- TAK-831 dosage at which maximum decline of tracer concentration was observed ([8]; mice, single p.o., tracer PGM019260 in cerebellum): ≥ 3 mg/kg
- koff ([8]; mouse, read-out: Koff dissociation rate constant): 3.14e-05 s⁻¹
- efficacy in social interaction model [9]: efficacious
- fraction unbound [10]: 0.0067
- fraction unbound [11]: 0.077
- Imax maximum inhibitory effect (D-serine in cerebellum [12]): 0.877
- BRmax maximum binding ratio (DAAO [13]): 0.987

SMILES: COc1ccc(CSc2c[nH]c(=O)c(O)c2)cn1 [PGM019260]
- DAAO inhibition in human enzyme in vitro (human DAAO): highly potent DAAO inhibition
- DAAO inhibition in mouse enzyme in vitro (mouse DAAO): highly potent DAAO inhibition
